From patent publication US11072616B2, “Cyclic peptides targeting alpha-4-beta-7 integrin” (Zealand Pharma A/S, priority 2015, dated 2021) come the findings set out here.

Bounds are passed on as bounds.

The target of one data set is CYP3A4 (Homo sapiens, UniProt P08684). As to the kind of experiment: in vitro. Particulars: human, microsomes. The method, then: (§1) Cytochrome P450 Inhibition Assay
(§2) Analyses were performed using standard LC/MS/MS protocols.

In another data set the target is T1, CYP1A2 (Homo sapiens, UniProt P05177).
T1 sequence (P05177 1-516): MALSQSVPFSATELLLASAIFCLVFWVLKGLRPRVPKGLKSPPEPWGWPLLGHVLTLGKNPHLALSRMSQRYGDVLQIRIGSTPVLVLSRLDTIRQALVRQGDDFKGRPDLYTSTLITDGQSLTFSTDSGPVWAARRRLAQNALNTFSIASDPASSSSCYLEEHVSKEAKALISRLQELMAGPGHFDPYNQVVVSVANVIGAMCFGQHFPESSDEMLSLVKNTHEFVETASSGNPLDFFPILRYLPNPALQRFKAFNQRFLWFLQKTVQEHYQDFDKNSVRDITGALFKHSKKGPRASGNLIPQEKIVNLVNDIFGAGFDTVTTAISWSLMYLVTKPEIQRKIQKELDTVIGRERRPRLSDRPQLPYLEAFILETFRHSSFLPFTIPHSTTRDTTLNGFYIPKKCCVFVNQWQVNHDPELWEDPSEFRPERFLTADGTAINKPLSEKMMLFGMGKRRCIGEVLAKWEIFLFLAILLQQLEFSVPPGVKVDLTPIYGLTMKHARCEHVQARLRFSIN
As to the kind of experiment: in vitro. Particulars: human, microsomes. The method, then:
as §1, §2

A further data set deals with CYP2C9 (Homo sapiens, UniProt P11712). Kind of data set: in vitro. Particulars: human, microsomes. Here is the method: as §1, §2
The target of the next data set is CYP2D6 (Homo sapiens, UniProt P10635). Kind of data set: in vitro. Conditions: human, microsomes. The method, then: as §1, §2
Assay in data set [1]: not given
This is another data set of the same source.

Data set [2] in a line: Plasma protein binding, equilibrium dialysis, rat plasma. Conditions: for fraction unbound at 5 h, 1 microM: 50% plasma. Background: Equilibrium dialysis compares concentrations on both sides of a semipermeable membrane.
Experimental: (§3) An equilibrium dialysis (HTDialysis) method was used employing 50% plasma collected from CD-1 mice or Sprague-Dawley rats and incubated with K2EDTA. Test articles were assessed at 1 microM concentration in three replicates. Incubation time as 5 hours and plasma and buffer standards were assessed using LC/MS/MS. Percentage recovery was calculated as (Cbuffer+Cplasma)/[average]Cinitial, [average]Cinitial being measured in triplicate from the test samples prior to dialysis. Percentage of compound unbound was calculated as Cbuffer/Cplasma.
Data set [3] is described as follows: Plasma protein binding, equilibrium dialysis, mouse plasma. Particulars: for fraction unbound at 5 h, 1 microM: 50% plasma.
Experimental: as §3
Another data set is described as follows: Aqueous solubility assay. In kind it is physicochemical. Conditions: PBS pH 7.4, 4 h, room temperature; for Determined concentration Mean: mean of 3, maximal concentration evaluated 200, 500 or 1000 μM; for Determined concentration Rep 1: replicate 1; for Determined concentration Rep 2: replicate 2; for Determined concentration Rep 3: replicate 3. Here is the method:
Solutions were incubated for four hours at room temperature and stirred at 600 rpm and run in triplicate. Centrifugation was performed for 15 minutes at 6000 rpm and solution concentration was determined using HPLC-UV (photodiode array detector acquiring between 220 nm, and 300 nm wavelengths).

Another data set deals with T2, integrin α4β7 (Homo sapiens, UniProt P13612+P26010).
T2 sequence (P13612 34-977 limits assumed): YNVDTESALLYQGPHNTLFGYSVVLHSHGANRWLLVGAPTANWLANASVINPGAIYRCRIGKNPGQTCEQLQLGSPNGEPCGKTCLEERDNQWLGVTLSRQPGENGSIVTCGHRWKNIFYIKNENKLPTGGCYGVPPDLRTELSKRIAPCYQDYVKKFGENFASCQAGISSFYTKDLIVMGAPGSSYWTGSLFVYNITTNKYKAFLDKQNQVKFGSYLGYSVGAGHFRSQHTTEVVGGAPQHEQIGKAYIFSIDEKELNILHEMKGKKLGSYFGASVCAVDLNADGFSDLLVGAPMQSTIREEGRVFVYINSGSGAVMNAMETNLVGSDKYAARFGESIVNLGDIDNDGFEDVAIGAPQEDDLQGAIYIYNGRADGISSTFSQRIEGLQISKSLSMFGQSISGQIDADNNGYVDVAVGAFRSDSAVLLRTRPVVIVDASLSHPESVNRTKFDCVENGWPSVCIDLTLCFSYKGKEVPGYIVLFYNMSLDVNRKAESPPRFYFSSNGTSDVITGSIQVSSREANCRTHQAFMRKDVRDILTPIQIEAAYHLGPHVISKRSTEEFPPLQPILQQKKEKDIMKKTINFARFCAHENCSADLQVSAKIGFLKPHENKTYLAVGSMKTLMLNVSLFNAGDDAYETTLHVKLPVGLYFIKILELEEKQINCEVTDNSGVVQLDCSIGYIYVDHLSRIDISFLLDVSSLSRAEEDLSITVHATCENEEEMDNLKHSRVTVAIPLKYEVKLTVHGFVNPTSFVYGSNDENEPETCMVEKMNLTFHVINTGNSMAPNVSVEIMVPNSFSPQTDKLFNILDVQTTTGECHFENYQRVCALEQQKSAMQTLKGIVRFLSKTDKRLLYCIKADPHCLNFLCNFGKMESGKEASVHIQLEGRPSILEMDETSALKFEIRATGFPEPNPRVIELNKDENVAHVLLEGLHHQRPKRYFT
T2 sequence (P26010 20-723 limits assumed): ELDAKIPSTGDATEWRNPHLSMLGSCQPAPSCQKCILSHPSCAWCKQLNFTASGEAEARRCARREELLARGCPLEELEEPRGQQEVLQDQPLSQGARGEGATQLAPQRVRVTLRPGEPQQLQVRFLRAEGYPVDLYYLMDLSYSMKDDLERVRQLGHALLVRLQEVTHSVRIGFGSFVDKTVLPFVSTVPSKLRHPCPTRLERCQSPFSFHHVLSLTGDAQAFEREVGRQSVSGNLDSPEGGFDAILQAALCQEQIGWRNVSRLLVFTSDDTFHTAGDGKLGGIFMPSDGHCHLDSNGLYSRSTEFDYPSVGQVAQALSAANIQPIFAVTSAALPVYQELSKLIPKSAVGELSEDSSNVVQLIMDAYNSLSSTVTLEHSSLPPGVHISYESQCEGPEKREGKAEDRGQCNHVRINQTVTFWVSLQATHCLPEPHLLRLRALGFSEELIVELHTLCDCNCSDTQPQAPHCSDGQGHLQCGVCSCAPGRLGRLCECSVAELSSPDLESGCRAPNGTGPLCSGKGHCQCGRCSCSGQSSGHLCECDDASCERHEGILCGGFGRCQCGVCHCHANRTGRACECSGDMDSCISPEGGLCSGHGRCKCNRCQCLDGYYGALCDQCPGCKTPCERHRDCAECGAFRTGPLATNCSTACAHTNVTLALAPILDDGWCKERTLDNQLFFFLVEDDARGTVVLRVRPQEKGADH
As to the kind of experiment: Integrin α4β7—MAdCAM-1 competition assay (ELISA). In kind it is binding. Particulars: ratio a4b1 ELISA IC50 / a4b7 ELISA IC50. A digest of the protocol:
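Competitive ELISA in which serially diluted compound was incubated with the receptor system for 2 h at room temperature to equilibrium. Wash buffer contained 1 mM MnCl2. Bound Fc-tagged partner was detected with anti-human IgG Fc-HRP and TMB.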
For orientation: In an ELISA, binding on a coated surface is turned into a signal by an enzyme label.

Sequence of CYP2C9 (P11712 whole entry): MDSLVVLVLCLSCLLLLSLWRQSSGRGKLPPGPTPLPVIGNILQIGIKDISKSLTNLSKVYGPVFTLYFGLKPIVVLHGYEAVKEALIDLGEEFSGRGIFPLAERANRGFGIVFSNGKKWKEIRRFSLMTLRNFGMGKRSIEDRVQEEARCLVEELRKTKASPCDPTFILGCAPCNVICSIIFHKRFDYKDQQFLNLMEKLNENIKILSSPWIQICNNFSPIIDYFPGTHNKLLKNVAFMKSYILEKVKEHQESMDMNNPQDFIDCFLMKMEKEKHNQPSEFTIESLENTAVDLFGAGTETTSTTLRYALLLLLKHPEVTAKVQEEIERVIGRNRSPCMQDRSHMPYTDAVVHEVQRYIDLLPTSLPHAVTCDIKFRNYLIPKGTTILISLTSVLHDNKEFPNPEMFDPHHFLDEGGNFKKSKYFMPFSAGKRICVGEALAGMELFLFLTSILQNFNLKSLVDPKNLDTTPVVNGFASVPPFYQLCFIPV
Sequence of CYP3A4 (P08684 whole entry): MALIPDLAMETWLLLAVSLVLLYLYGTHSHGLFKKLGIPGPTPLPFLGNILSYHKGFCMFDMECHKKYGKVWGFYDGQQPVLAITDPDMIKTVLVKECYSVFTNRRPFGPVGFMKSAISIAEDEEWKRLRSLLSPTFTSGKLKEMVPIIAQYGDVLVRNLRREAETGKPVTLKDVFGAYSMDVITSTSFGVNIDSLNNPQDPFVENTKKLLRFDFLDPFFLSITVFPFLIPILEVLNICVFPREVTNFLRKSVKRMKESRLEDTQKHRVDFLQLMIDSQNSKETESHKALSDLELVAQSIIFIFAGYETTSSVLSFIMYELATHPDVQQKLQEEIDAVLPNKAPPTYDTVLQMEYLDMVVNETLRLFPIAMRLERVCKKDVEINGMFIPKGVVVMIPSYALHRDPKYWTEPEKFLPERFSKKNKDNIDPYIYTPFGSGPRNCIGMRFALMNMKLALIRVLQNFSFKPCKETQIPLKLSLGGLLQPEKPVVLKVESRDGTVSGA
Sequence of CYP2D6 (P10635 whole entry): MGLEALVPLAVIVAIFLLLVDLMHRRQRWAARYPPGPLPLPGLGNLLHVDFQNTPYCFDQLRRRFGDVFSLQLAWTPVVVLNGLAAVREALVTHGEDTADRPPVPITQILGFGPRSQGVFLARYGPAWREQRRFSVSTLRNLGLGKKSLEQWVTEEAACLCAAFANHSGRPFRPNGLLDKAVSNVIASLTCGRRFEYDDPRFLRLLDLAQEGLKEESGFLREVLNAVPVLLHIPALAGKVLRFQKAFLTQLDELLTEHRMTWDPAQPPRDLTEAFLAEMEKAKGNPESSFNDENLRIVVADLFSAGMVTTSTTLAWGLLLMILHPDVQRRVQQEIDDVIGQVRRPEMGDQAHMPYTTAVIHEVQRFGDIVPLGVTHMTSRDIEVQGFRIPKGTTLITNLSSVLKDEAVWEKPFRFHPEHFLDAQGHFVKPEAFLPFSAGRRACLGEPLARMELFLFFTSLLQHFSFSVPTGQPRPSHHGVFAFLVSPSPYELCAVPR

For `CC(C)C[C@H]1C(=O)N[C@@H](C(C)C)C(=O)N[C@@H](Cc2ccccc2)C(=O)N[C@@H](C)[C@@H](C(=O)NC(C)(C)C)N2CCC[C@H]2C(=O)N[C@@H]([C@@H](C)O)C(=O)N1C` [ET00328-01], the IC50 (commonly the concentration needed to halve the response being measured) at CYP3A4 was 9.7 µM; at CYP1A2, over 15 µM; at CYP2C9 it was over 15 µM; at CYP2D6 it was over 15 µM.
As to `CC[C@H](C)[C@@H]1NC(=O)[C@H](CC(=O)O)NC(=O)[C@H](CC(C)C)NC(=O)[C@H](Cc2ccc3ccccc3c2)NC(=O)[C@@H]2CCCN2[C@H](C(=O)NC(C)(C)C)[C@H](C)NC1=O` [ET01827], the “% unbound (Cbuffer/Cplasma) Mouse plasma 3” value is given as 9.3% and the “% unbound (Cbuffer/Cplasma) Mouse plasma Average” value stood at 9.5%. Further, in [1], the “% unbound (Cbuffer/Cplasma) Rat plasma 1” value is listed as 16.2%, the “% unbound (Cbuffer/Cplasma) Rat plasma 2” value was 17.4% and the “% unbound (Cbuffer/Cplasma) Rat plasma Average” value came out at 15.7%. In data set [2] (rat plasma dialysis), the “% recovery” value came out at 143%. Also, the “Control buffer/Buffer at 0.1 uM Cdonor/Creceiver” value in data set [3] (buffer/buffer control, 0.1 uM) stood at 86%. For the same compound, the “% recovery” value in [3] (mouse plasma dialysis) is recorded as 103%.
On to `CC[C@H](C)[C@@H]1NC(=O)[C@H](CCO)NC(=O)[C@H](CC(C)C)NC(=O)[C@H](Cc2ccc3ccccc3c2)NC(=O)[C@@H]2CCCN2[C@H](C(=O)NC(C)(C)C)[C@H](C)NC1=O` [ET01842-01], for which the IC50 against CYP3A4 was 0.89 µM; at CYP1A2, over 15 µM; against CYP2C9, over 15 µM; against CYP2D6 it was over 15 µM.
At CYP2C9, `Clc1ccc(COC(Cn2ccnc2)c2ccc(Cl)cc2Cl)c(Cl)c1` (stereo not drawn) [Miconazole, reference compound] showed an IC50 of 0.32 µM.
`CC(C)NCC(O)COc1cccc2ccccc12` (stereo not drawn) [Propranolol, reference compound]: the recovery at 5 h, 1 microM stood at 79% in data set [2] (Sprague-Dawley, rat, 50% plasma (K2EDTA)) and 93% in data set [3] (CD-1, mouse, 50% plasma (K2EDTA)). Further, the fraction unbound – broadly, the share of the substance not bound to proteins or other matrix – at 5 h, 1 microM in data set [2] (Sprague-Dawley, rat, % unbound (Cbuffer/Cplasma) Rat plasma 1, replicate 1, 1 microM, 5 h) was 0.146; in [2] (Sprague-Dawley, rat, % unbound (Cbuffer/Cplasma) Rat plasma 2, replicate 2, 1 microM, 5 h), 0.147; in [2] (Sprague-Dawley, rat, % unbound (Cbuffer/Cplasma) Rat plasma 3, replicate 3, 1 microM, 5 h) it was 0.147; in data set [2] (Sprague-Dawley, rat, % unbound (Cbuffer/Cplasma) Rat plasma Average, average of 3 replicates), 0.147; in data set [2] (Sprague-Dawley, rat, free fraction (% unbound), rat plasma), about 0.15; in data set [3] (CD-1, mouse, % unbound (Cbuffer/Cplasma) Mouse plasma 1, replicate 1, 1 microM, 5 h), 0.229. Also, the fraction unbound at 5 h, 1 microM is 0.201 in data set [3] (CD-1, mouse, % unbound (Cbuffer/Cplasma) Mouse plasma 2, replicate 2, 1 microM, 5 h); 0.201 in data set [3] (CD-1, mouse, % unbound (Cbuffer/Cplasma) Mouse plasma 3, replicate 3, 1 microM, 5 h); 0.21 in data set [3] (CD-1, mouse, % unbound (Cbuffer/Cplasma) Mouse plasma Average, average of 3 replicates); about 0.21 in data set [3] (CD-1, mouse, free fraction (% unbound), mouse plasma).
For the compound `CC(C)C[C@@H]1NC(=O)C2(CCCC2)NC(=O)[C@@H]2CCCN2[C@H](C(=O)NC(C)(C)C)[C@H](C)NC(=O)[C@H]([C@@H](C)O)NC(=O)[C@H](CC(=O)O)NC1=O` [UM0132368-01], in the data set “Aqueous solubility assay”, the “Determined concentration Mean” value was 926.3 µM, the “Determined concentration Rep 1” value was 926.3 µM, the “Determined concentration Rep 2” value stood at 917.9 µM and the “Determined concentration Rep 3” value amounted to 934.3 µM. Besides, on integrin α4β7, the “Selectivity ELISA” value was 14.9.
On to `CC(C)C[C@@H]1NC(=O)C2(Cc3ccccc3C2)NC(=O)[C@@H]2CCCN2[C@H](C(=O)NC(C)(C)C)[C@H](C)NC(=O)[C@H]([C@@H](C)O)NC(=O)[C@H](CC(=O)O)NC1=O` [UM0132369-01], for which, in the data set “Aqueous solubility assay”, the “Determined concentration Mean” value stood at 882.5 µM, the “Determined concentration Rep 1” value turned out to be 874.4 µM, the “Determined concentration Rep 2” value was determined as 885.9 µM and the “Determined concentration Rep 3” value stood at 887.3 µM. Also, the “Selectivity ELISA” value on integrin α4β7 was 14.4.
`CC(C)C[C@@H]1NC(=O)c2cccc(c2)CNC(=O)[C@@H]2CCCN2[C@H](C(=O)NC(C)(C)C)[C@H](C)NC(=O)[C@H]([C@@H](C)O)NC(=O)[C@H](CC(=O)O)NC1=O` [UM0134690-01]: in the data set “Aqueous solubility assay”, the “Determined concentration Mean” value was 942.9 µM, the “Determined concentration Rep 1” value was 957.3 µM, the “Determined concentration Rep 2” value was 950.5 µM and the “Determined concentration Rep 3” value was found to be 920.8 µM. In addition, on integrin α4β7, the “Selectivity ELISA” value is given as 8.7.
For the compound `CC(C)C[C@@H]1NC(=O)[C@H](Cc2ccc(O)cc2)NC(=O)[C@H](C)NC(=O)[C@@H]2CCCN2[C@H](C(=O)NC(C)(C)C)[C@H](C)NC(=O)[C@H]([C@@H](C)O)NC(=O)[C@H](CC(=O)O)NC1=O` [UM0134830-01], in the data set “Aqueous solubility assay”, the “Determined concentration Mean” value was found to be 1000.0 µM, the “Determined concentration Rep 1” value stood at 1012.0 µM, the “Determined concentration Rep 2” value stood at 1016.4 µM and the “Determined concentration Rep 3” value stood at 971.7 µM.
